We go through 26 compounds from patent US8859584B2, “TRPV1 antagonists” (AbbVie Inc., priority 2011, dated 2014).

For test [1], the target named is T1, human TRPV1 (Homo sapiens, UniProt Q8NER1).
T1 construct: expressed in transfected cells
Briefly: Capsaicin Activation Assay (FLIPR intracellular Ca2+, recombinant HEK293 cells). The format is cell-based. To be noted: recombinant HEK293 cells expressing hTRPV1; 50 nM capsaicin; read-out: human TRPV1 capsaicin IC50.

In test [2] the target is T1, human TRPV1. Briefly: Acid Activation Assay (pH 5.0, FLIPR intracellular Ca2+, recombinant HEK293 cells). The format is cell-based. The settings on record: percentage of maximal pH 5.0-induced response remaining; HEK293 hTRPV1; max concentration 37.5 μM. Put shortly: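 HEK293 cells stably expressing recombinant hTRPV1 were loaded with calcium dye for 90-120 min at 25° C and pre-treated with compound for 3 min before a pH 5.0 (DPBS/MES) challenge. Peak FLIPR fluorescence over baseline is given as percentage of the maximal pH 5.0-induced response.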

T1 sequence (Q8NER1 whole entry): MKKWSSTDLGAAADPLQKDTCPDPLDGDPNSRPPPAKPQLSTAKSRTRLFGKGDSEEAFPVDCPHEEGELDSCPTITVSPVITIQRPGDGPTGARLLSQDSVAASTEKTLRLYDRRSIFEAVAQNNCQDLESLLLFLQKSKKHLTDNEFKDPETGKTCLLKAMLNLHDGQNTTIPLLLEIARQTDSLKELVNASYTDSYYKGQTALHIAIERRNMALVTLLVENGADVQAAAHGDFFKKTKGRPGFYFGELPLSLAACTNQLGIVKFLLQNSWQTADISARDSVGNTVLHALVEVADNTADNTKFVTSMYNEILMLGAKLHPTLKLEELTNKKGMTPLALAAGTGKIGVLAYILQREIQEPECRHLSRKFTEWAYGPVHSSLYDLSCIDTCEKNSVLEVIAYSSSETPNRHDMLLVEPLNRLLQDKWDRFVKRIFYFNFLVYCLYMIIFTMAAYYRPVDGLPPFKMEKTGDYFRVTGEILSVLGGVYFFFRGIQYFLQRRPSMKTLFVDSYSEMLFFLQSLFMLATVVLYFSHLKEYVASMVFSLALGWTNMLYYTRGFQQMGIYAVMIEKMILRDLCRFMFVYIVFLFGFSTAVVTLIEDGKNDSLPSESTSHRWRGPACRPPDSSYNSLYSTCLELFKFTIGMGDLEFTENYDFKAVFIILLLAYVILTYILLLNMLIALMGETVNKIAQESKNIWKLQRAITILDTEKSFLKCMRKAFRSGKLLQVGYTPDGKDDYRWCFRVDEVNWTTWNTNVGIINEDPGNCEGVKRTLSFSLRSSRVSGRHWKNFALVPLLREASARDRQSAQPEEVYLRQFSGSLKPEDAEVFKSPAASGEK

One may read the IC50 as the point on the concentration scale where inhibition reaches its midpoint. Regarding `O=C(Nc1ccc(F)c2c1C[C@@H](O)C2)N[C@@H]1CC2(CCC2)Oc2ccc(F)cc21` [Example 163, 1-[(4R)-6-fluoro-3,4-dihydrospiro[chromene-2,1′-cyclobutan]-4-yl]-3-[(2R)-7-fluoro-2-hydroxy-2,3-dihydro-1H-inden-4-yl]urea], the IC50 on human TRPV1 [1] turned out to be 0.69 µM. For the same compound, the “human TRPV1 H+ (max % remain)” value at human TRPV1 [2] was 38%.

Regarding `CC1(C(F)F)C[C@@H](NC(=O)Nc2cccc3c2C[C@H](O)C3)c2cc(Cl)ccc2O1` (stereo partly drawn) [Example 61, 1-[(4R)-6-chloro-2-(difluoromethyl)-2-methyl-3,4-dihydro-2H-chromen-4-yl]-3-[(2R)-2-hydroxy-2,3-dihydro-1H-inden-4-yl]urea], the IC50 at human TRPV1 [1] came to 0.02 µM. For the same compound, at human TRPV1 [2], the “human TRPV1 H+ (max % remain)” value was 69%.

Consider `O=C(Nc1cccc2c1C[C@@H](O)C2)N[C@@H]1CC(CF)(CF)Oc2cc(Cl)ccc21` [Example 24, 1-[(4R)-7-chloro-2,2-bis(fluoromethyl)-3,4-dihydro-2H-chromen-4-yl]-3-[(2S)-2-hydroxy-2,3-dihydro-1H-inden-4-yl]urea], for which the IC50 on human TRPV1 [1] stood at 0.027 µM. For the same compound, the “human TRPV1 H+ (max % remain)” value at human TRPV1 [2] is 6%.

Consider `O=C(Nc1ccc(F)c2c1C[C@H](O)C2)N[C@@H]1CCOc2cc(OC(F)(F)F)ccc21` [Example 150, 1-[(2S)-7-fluoro-2-hydroxy-2,3-dihydro-1H-inden-4-yl]-3-[(4R)-7-(trifluoromethoxy)-3,4-dihydro-2H-chromen-4-yl]urea], for which, on human TRPV1 [1], the IC50 is 1.6 µM. In addition, the “human TRPV1 H+ (max % remain)” value on human TRPV1 [2] came to 3%.

For the compound `C[C@]1(CF)C[C@@H](NC(=O)Nc2cccc3c2C[C@H](O)C3)c2ccc(Cl)cc2O1` [Example 15, 1-[(2R,4R)-7-chloro-2-(fluoromethyl)-2-methyl-3,4-dihydro-2H-chromen-4-yl]-3-[(2R)-2-hydroxy-2,3-dihydro-1H-inden-4-yl]urea], the IC50 on human TRPV1 [1] was 0.06 µM. Further, the “human TRPV1 H+ (max % remain)” value on human TRPV1 [2] is listed as 63%.

Regarding `C[C@]1(CF)C[C@@H](NC(=O)Nc2ccc3c(c2)C(O)C3)c2ccccc2O1` (stereo partly drawn) [Example 132, 1-[(2R,4R)-2-(fluoromethyl)-2-methyl-3,4-dihydro-2H-chromen-4-yl]-3-(8-hydroxybicyclo[4.2.0]octa-1,3,5-trien-3-yl)urea], the IC50 on human TRPV1 [1] stood at 31 µM. Moreover, the “human TRPV1 H+ (max % remain)” value on human TRPV1 [2] is given as 95%.

In the case of `O=C(Nc1ccc(F)c2c1C[C@H](O)C2)N[C@@H]1CC(CF)(CF)Oc2c(F)cccc21` [Example 152, 1-[(4R)-8-fluoro-2,2-bis(fluoromethyl)-3,4-dihydro-2H-chromen-4-yl]-3-[(2S)-7-fluoro-2-hydroxy-2,3-dihydro-1H-inden-4-yl]urea], on human TRPV1 [1], the IC50 came to 5.5 µM. Moreover, the “human TRPV1 H+ (max % remain)” value at human TRPV1 [2] was determined as 3%.

Turning to “1-[(4R)-2,2-dimethyl-8-(trifluoromethoxy)-3,4-dihydro-2H-chromen-4-yl]-3-[(2R)-7-fluoro-2-hydroxy-2,3-dihydro-1H-inden-4-yl]urea [Example 172]”, the IC50 on human TRPV1 [1] amounted to 0.032 µM. The “human TRPV1 H+ (max % remain)” value on human TRPV1 [2] stood at 47%.

Regarding `CC1(C)C[C@@H](NC(=O)Nc2ccc(F)c3c2C[C@@H](O)C3)c2cccc(F)c2O1` [Example 157, 1-[(4R)-8-fluoro-2,2-dimethyl-3,4-dihydro-2H-chromen-4-yl]-3-[(2R)-7-fluoro-2-hydroxy-2,3-dihydro-1H-inden-4-yl]urea], at human TRPV1 [1], the IC50 stood at 1.8 µM. Also, the “human TRPV1 H+ (max % remain)” value at human TRPV1 [2] worked out at 59%.

Take `O=C(NCC1CCc2cc(C(F)(F)F)ccc2O1)Nc1cccc2c1C[C@H](O)C2` (stereo partly drawn) [Example 26, 1-[(2R)-2-hydroxy-2,3-dihydro-1H-inden-4-yl]-3-{[6-(trifluoromethyl)-3,4-dihydro-2H-chromen-2-yl]methyl}urea]: the IC50 on human TRPV1 [1] was found to be 0.77 µM. Further, the “human TRPV1 H+ (max % remain)” value on human TRPV1 [2] was determined as 66%.

Regarding `CC(C)(C)c1ccc2c(c1)CC[C@H]2NC(=O)Nc1cccc2c1C[C@H](O)C2` [Example 50, 1-[(1R)-5-tert-butyl-2,3-dihydro-1H-inden-1-yl]-3-[(2R)-2-hydroxy-2,3-dihydro-1H-inden-4-yl]urea], at human TRPV1 [1], the IC50 is 0.032 µM. Moreover, the “human TRPV1 H+ (max % remain)” value at human TRPV1 [2] is 69%.

For the compound `O=C(Nc1cccc2c1C[C@H](O)C2)N[C@@H]1CC(CF)(CF)Oc2ccc(F)cc21` [Example 57, 1-[(4R)-6-fluoro-2,2-bis(fluoromethyl)-3,4-dihydro-2H-chromen-4-yl]-3-[(2R)-2-hydroxy-2,3-dihydro-1H-inden-4-yl]urea], at human TRPV1 [1], the IC50 is 0.57 µM. On human TRPV1 [2], the “human TRPV1 H+ (max % remain)” value worked out at 63%.

With `CCCC1(CCC)C[C@@H](NC(=O)Nc2cccc3c2C[C@H](O)C3)c2cc(F)ccc2O1` [Example 56, 1-[(4R)-6-fluoro-2,2-dipropyl-3,4-dihydro-2H-chromen-4-yl]-3-[(2R)-2-hydroxy-2,3-dihydro-1H-inden-4-yl]urea], the IC50 on human TRPV1 [1] was determined as 0.046 µM. On human TRPV1 [2], the “human TRPV1 H+ (max % remain)” value amounted to 96%.

Consider `C[C@@]1(CF)C[C@@H](NC(=O)Nc2cccc3c2C[C@H](O)C3)c2ccc(Cl)cc2O1` [Example 16, 1-[(2S,4R)-7-chloro-2-(fluoromethyl)-2-methyl-3,4-dihydro-2H-chromen-4-yl]-3-[(2R)-2-hydroxy-2,3-dihydro-1H-inden-4-yl]urea], for which the concentration for half-maximal inhibition (IC50) on human TRPV1 [1] amounted to 0.037 µM. Also, the “human TRPV1 H+ (max % remain)” value at human TRPV1 [2] was 57%.

Regarding `O=C(Nc1cccc2c1C[C@@H](O)C2)N[C@@H]1CC(CF)(CF)Oc2cc(C(F)(F)F)ccc21` [Example 74, 1-[(4R)-2,2-bis(fluoromethyl)-7-(trifluoromethyl)-3,4-dihydro-2H-chromen-4-yl]-3-[(2S)-2-hydroxy-2,3-dihydro-1H-inden-4-yl]urea], the IC50 at human TRPV1 [1] came out at 0.014 µM. The “human TRPV1 H+ (max % remain)” value on human TRPV1 [2] is 2%.

`O=C(Nc1cccc2c1C[C@H](O)C2)N[C@@H]1CC2(CCC2)Oc2ccccc21` [Example 22, 1-[(4R)-3,4-dihydrospiro[chromene-2,1′-cyclobutan]-4-yl]-3-[(2R)-2-hydroxy-2,3-dihydro-1H-inden-4-yl]urea]: on human TRPV1 [1], the IC50 came out at 0.078 µM. The “human TRPV1 H+ (max % remain)” value on human TRPV1 [2] was 73%.

In the case of `CC1(C)C[C@@H](NC(=O)Nc2ccc(F)c3c2C[C@H](O)C3)c2ccc(F)cc2O1` [Example 138, 1-[(4R)-7-fluoro-2,2-dimethyl-3,4-dihydro-2H-chromen-4-yl]-3-[(2S)-7-fluoro-2-hydroxy-2,3-dihydro-1H-inden-4-yl]urea], at human TRPV1 [1], the IC50 was 0.82 µM. Also, the “human TRPV1 H+ (max % remain)” value at human TRPV1 [2] was 4%.

In the case of `CCCC1(CCC)C[C@@H](NC(=O)Nc2cccc3c2C[C@H](O)C3)c2cccc(F)c2O1` [Example 59, 1-[(4R)-8-fluoro-2,2-dipropyl-3,4-dihydro-2H-chromen-4-yl]-3-[(2R)-2-hydroxy-2,3-dihydro-1H-inden-4-yl]urea], the IC50 at human TRPV1 [1] came to 0.023 µM. In addition, the “human TRPV1 H+ (max % remain)” value on human TRPV1 [2] is 99%.

With `CC1(C)C[C@@H](NC(=O)Nc2ccc(F)c3c2C[C@@H](O)C3)c2ccc(C(F)(F)F)cc2O1` [Example 160, 1-[(4R)-2,2-dimethyl-7-(trifluoromethyl)-3,4-dihydro-2H-chromen-4-yl]-3-[(2R)-7-fluoro-2-hydroxy-2,3-dihydro-1H-inden-4-yl]urea], the IC50 on human TRPV1 [1] is 0.13 µM. Besides, the “human TRPV1 H+ (max % remain)” value at human TRPV1 [2] came out at 61%.

Turning to `O=C(Nc1cccc2c1C[C@H](O)C2)N[C@@H]1CC(CF)(CF)Oc2c(Cl)cccc21` [Example 2, 1-[(4R)-8-chloro-2,2-bis(fluoromethyl)-3,4-dihydro-2H-chromen-4-yl]-3-[(2R)-2-hydroxy-2,3-dihydro-1H-inden-4-yl]urea], the IC50 at human TRPV1 [1] is 0.16 µM. Besides, the “human TRPV1 H+ (max % remain)” value on human TRPV1 [2] came out at 80%.

For the compound `CCC1(CC)C[C@@H](NC(=O)Nc2cccc3c2C[C@H](O)C3)c2ccc(Cl)cc2O1` [Example 54, 1-[(4R)-7-chloro-2,2-diethyl-3,4-dihydro-2H-chromen-4-yl]-3-[(2R)-2-hydroxy-2,3-dihydro-1H-inden-4-yl]urea], on human TRPV1 [1], the IC50 was 0.076 µM. For the same compound, the “human TRPV1 H+ (max % remain)” value at human TRPV1 [2] is recorded as 59%.

As for `O=C(Nc1cccc2c1C[C@H](O)C2)N[C@@H]1CC2(CCCC2)Oc2ccccc21` [Example 128, 1-[(4R)-3,4-dihydrospiro[chromene-2,1′-cyclopentan]-4-yl]-3-[(2R)-2-hydroxy-2,3-dihydro-1H-inden-4-yl]urea], the IC50 at human TRPV1 [1] was 0.41 µM. For the same compound, the “human TRPV1 H+ (max % remain)” value on human TRPV1 [2] is recorded as 75%.

For `O=C(Nc1cccc2c1CC(O)C2)NC1CC(c2ccc(Cl)cc2)Oc2ccccc21` (stereo not shown) [Example 117, 1-[2-(4-chlorophenyl)-3,4-dihydro-2H-chromen-4-yl]-3-(2-hydroxy-2,3-dihydro-1H-inden-4-yl)urea], the IC50 at human TRPV1 [1] worked out at 0.13 µM. Moreover, the “human TRPV1 H+ (max % remain)” value on human TRPV1 [2] was 45%.

In the case of `O=C(Nc1ccc(F)c2c1C[C@@H](O)C2)N[C@@H]1CC(CF)(CF)Oc2ccc(F)cc21` [Example 161, 1-[(4R)-6-fluoro-2,2-bis(fluoromethyl)-3,4-dihydro-2H-chromen-4-yl]-3-[(2R)-7-fluoro-2-hydroxy-2,3-dihydro-1H-inden-4-yl]urea], the IC50 at human TRPV1 [1] was found to be 3.9 µM. The “human TRPV1 H+ (max % remain)” value at human TRPV1 [2] is 47%.

`CC1(C)C[C@@H](NC(=O)Nc2ccc(F)c3c2C[C@H](O)C3)c2ccccc2O1` [Example 145, 1-[(4R)-2,2-dimethyl-3,4-dihydro-2H-chromen-4-yl]-3-[(2S)-7-fluoro-2-hydroxy-2,3-dihydro-1H-inden-4-yl]urea]: the IC50 at human TRPV1 [1] came out at 3.2 µM. Further, on human TRPV1 [2], the “human TRPV1 H+ (max % remain)” value worked out at 7%.

On to `O=C(Nc1cccc2c1C[C@@H](O)C2)N[C@H]1CC(CF)(CF)Oc2cc(Cl)ccc21` [Example 98, 1-[(4S)-7-chloro-2,2-bis(fluoromethyl)-3,4-dihydro-2H-chromen-4-yl]-3-[(2S)-2-hydroxy-2,3-dihydro-1H-inden-4-yl]urea], for which the 50% inhibitory concentration (IC50) at human TRPV1 [1] was found to be 0.5 µM. Besides, on human TRPV1 [2], the “human TRPV1 H+ (max % remain)” value was found to be 13%.
